Measured values from patent US9987254B2, “Ophthalmic composition for correcting presbyopia” (Eurocanarias Oftalmológica, S.L., priority 2013, dated 2018).

Legend:
[1] = tested on: presbyopia; test: Study in presbyopia patients over 40 years old, non-dominant eye treated, single daily application; type: in vivo, human; details: bromfenac combined with pilocarpine
Source text: The study carried out by the present invention is based on a composition distinct from Dr. Benotzzi's, as well as on other selection criteria as regards patients, exclusively including patients over 40 years old with evident signs of clear presbyopia with a refractive defect among −0.50 of myopia and +0.75 of hyperopia with a maximum astigmatism of −0.75, in addition to their corresponding age-based presbyopia. Here, only those patients with the following characteristics were considered ideal candidates: an ACD (Anterior Chamber […] of the eye) greater than 2.5 mm, a White-to-White (horizontal diameter) greater than 11.4 mm and a value of photopic pupils higher than 3 mm. and of scotopic pupils lower than 6.5 mm, plus a correct convergence and binocularity and a density of the eye crystal lower than 25 measured with Pentacam. Additionally, only the non-dominant eye has been always treated, a situation that is not reflected in the studies of Dr. Benozzi, although we have evidence that recommends the use in both eyes. […]

[2] = tested on: prostaglandin synthesis at the level of ciliary body and the iris; details: in vitro; cited from earlier work
[3] = cited from earlier work
[4] = after instillation on the ocular surface

SMILES	parasympathomimetic action of pilocarpine ([1]; compared with diclofenac of Dr. Benozzi's formula)	depth of focus of the treated eye ([1]; non-dominant eye treated)	inhibition of prostaglandin synthesis [2]	concentrations in aqueous humor remained [3, 4]	measurable levels in the major ocular tissues [3, 4]	passage through the human cornea ([3]; human cornea)
Nc1c(CC(=O)O)cccc1C(=O)c1ccc(Br)cc1 [bromfenac]	significantly extends	significant increase	inhibits prostaglandin synthesis			
Nc1c(CC(=O)O)cccc1C(=O)c1ccc(Br)cc1 [bromfenac sodium sesquihydrate]				over 12 hours	≤ 24 h	efficiently pass through the human cornea
